Where two headings read alike, the source gives them in different places.
Columns and labels:
primary human T-cells [1] = assay: Proliferation assay after 5 days (CellTiter-Glo, CD3 stimulation; PBS counter screen); format: cell-based; conditions: CD3 stimulation; for Emax / Emax proliferation (% activation): 5 days, normalized to reference compound A1 as stimulator control = 100%, DMSO neutral control; for Emax: read-out: Emax proliferation (% activation); for EC50: primary human T-cells, CellTiter-Glo after 5 days, EC50 of fitted sigmoidal curve, read-out: Tcell Proliferation CD3 EC50
Experimental: Compounds are then added (see next section) to medium only plates.
Cells are assessed for proliferation 5 days later by measuring […] using CellTiterGlo (Promega).
After 5 days, for detection of ATP which is directly proportional to the number of cells present per well, the CellTiter-Glo® 2.0 Reagent is used. After visual control for toxicity or precipitations of the tested compounds, the plates are equilibrated to room temperature for 45 minutes. CellTiter-Glo® 2.0 Reagent is equilibrated to room temperature as well. After equilibration, an equal amount of CellTiter-Glo reagent is added to the cells (80 μl/well) with an electronic multichannel pipette. Plates are placed on a rocking platform for 15 minutes at room temperature. After incubation, the bottom of the plates is sealed with backing tape. Luminescence is measured with PHERAstar FSX (interval time 0.5 sec, gain 3000, focal height 15 mm) and exported as CSV file for analysis in Genedata screener.
Compounds which activate unstimulated cells (see IL2 measurements) or compounds which negatively affected viability were flagged.

primary human T-cells [2] = tested on: primary human T-cells

SMILES	EC50 (primary human T-cells [2]) [nM]	Emax (primary human T-cells [1]; Homo sapiens, T-cell, 120 h) [%]	EC50 (primary human T-cells [1]; Homo sapiens, T-cell, 120 h) [nM]	Emax proliferation (% activation) (primary human T-cells [1])	EC50 (primary human T-cells [1]) [nM]
CS(=O)(=O)N1CCC(n2nnc(-c3cc4c(cc3F)S(=O)(=O)C[C@H](N)C(=O)N4Cc3ccc(Cl)cc3)n2)CC1 [Example 17, (3R)-3-amino-5-[(4-chlorophenyl)methyl]-8-fluoro-7-[2-(1-methylsulfonyl-4-piperidyl)tetrazol-5-yl]-1,1-dioxo-2,3-dihydro-1λ^6,5-benzothiazepin-4-one]	262	239	167		
CS(=O)(=O)N1CCCC(n2nnc(-c3cc4c(cc3F)S(=O)(=O)C[C@H](N)C(=O)N4Cc3ccc(Cl)cc3)n2)C1 (stereo partly drawn) [Example 18, (3R)-3-amino-5-[(4-chlorophenyl)methyl]-8-fluoro-7-[2-(1-methylsulfonyl-3-piperidyl)tetrazol-5-yl]-1,1-dioxo-2,3-dihydro-1λ^6,5-benzothiazepin-4-one]	910	136	296		
CS(=O)(=O)N1CCC(n2nnc(-c3cc4c(cc3F)S(=O)(=O)C[C@H](N)C(=O)N4Cc3ccc(Cl)cc3)n2)C1 (stereo partly drawn) [Example 19, (3R)-3-amino-5-[(4-chlorophenyl)methyl]-8-fluoro-7-[2-(1-methylsulfonylpyrrolidin-3-yl)tetrazol-5-yl]-1,1-dioxo-2,3-dihydro-1λ^6,5-benzothiazepin-4-one]	1170	58	1290		
CN1CCCC(n2nnc(-c3cc4c(cc3F)S(=O)(=O)C[C@H](N)C(=O)N4Cc3ccc(Cl)cc3)n2)C1 (stereo partly drawn) [Example 20, (3R)-3-amino-5-[(4-chlorophenyl)methyl]-8-fluoro-7-[2-(1-methyl-3-piperidyl)tetrazol-5-yl]-1,1-dioxo-2,3-dihydro-1λ^6,5-benzothiazepin-4-one]	846	111	567		
CN1CC(n2nnc(-c3cc4c(cc3F)S(=O)(=O)C[C@H](N)C(=O)N4Cc3ccc(Cl)cc3)n2)CC(F)(F)C1 (stereo partly drawn) [Example 21, (3R)-3-amino-5-[(4-chlorophenyl)methyl]-7-[2-(5,5-difluoro-1-methyl-3-piperidyl)tetrazol-5-yl]-8-fluoro-1,1-dioxo-2,3-dihydro-1λ^6,5-benzothiazepin-4-one]	666	127	293		
CN1CC(n2nnc(-c3cc4c(cc3F)S(=O)(=O)C[C@H](N)C(=O)N4Cc3ccccc3)n2)CC(F)(F)C1 (stereo partly drawn) [Example 22, (3R)-3-amino-5-benzyl-7-[2-(5,5-difluoro-1-methyl-3-piperidyl)tetrazol-5-yl]-8-fluoro-1,1-dioxo-2,3-dihydro-1λ^6,5-benzothiazepin-4-one]	> 10000	74	> 10000		
CS(=O)(=O)N1CC(n2nnc(-c3cc4c(cc3F)S(=O)(=O)C[C@H](N)C(=O)N4Cc3ccc(Cl)cc3)n2)CC(F)(F)C1 (stereo partly drawn) [Example 23, (3R)-3-amino-5-[(4-chlorophenyl)methyl]-7-[2-(5,5-difluoro-1-methylsulfonyl-3-piperidyl)tetrazol-5-yl]-8-fluoro-1,1-dioxo-2,3-dihydro-1λ^6,5-benzothiazepin-4-one]	3790	161	588		
CC(=O)N1CC(n2nnc(-c3cc4c(cc3F)S(=O)(=O)C[C@H](N)C(=O)N4Cc3ccc(Cl)cc3)n2)CC(F)(F)C1 (stereo partly drawn) [Example 24, (3R)-7-[2-(1-acetyl-5,5-difluoro-3-piperidyl)tetrazol-5-yl]-3-amino-5-[(4-chlorophenyl)methyl]-8-fluoro-1,1-dioxo-2,3-dihydro-1λ^6,5-benzothiazepin-4-one]	6620	95	2020		
COC(=O)N1CC(n2nnc(-c3cc4c(cc3F)S(=O)(=O)C[C@H](N)C(=O)N4Cc3ccc(Cl)cc3)n2)CC(F)(F)C1 (stereo partly drawn) [Example 25, methyl 3,3-difluoro-5-[5-[(3R)-3-amino-5-[(4-chlorophenyl)methyl]-8-fluoro-1,1,4-trioxo-2,3-dihydro-1λ^6,5-benzothiazepin-7-yl]tetrazol-2-yl]piperidine-1-carboxylate]	1320	132	249		
CC(=O)N[C@H]1CS(=O)(=O)c2cc(F)c(-c3nnn(C4CNCC(F)(F)C4)n3)cc2N(Cc2ccc(Cl)cc2)C1=O (stereo partly drawn) [Example 26, N-[(3R)-5-[(4-chlorophenyl)methyl]-7-[2-(5,5-difluoro-3-piperidyl)tetrazol-5-yl]-8-fluoro-1,1,4-trioxo-2,3-dihydro-1λ^6,5-benzothiazepin-3-yl]acetamide]	> 10000	64	6390		
CC(C)(O)Cn1nnc(-c2cc3c(cc2F)S(=O)(=O)C[C@H](N)C(=O)N3Cc2ccc(Cl)cc2)n1 [Example 27, (3R)-3-amino-5-[(4-chlorophenyl)methyl]-8-fluoro-7-[2-(2-hydroxy-2-methyl-propyl)tetrazol-5-yl]-1,1-dioxo-2,3-dihydro-1λ^6,5-benzothiazepin-4-one]	1230	103	2050		

The next lines start with results.

EC50 (primary human T-cells [2]) [nM]	SMILES	Emax (primary human T-cells [1]; Homo sapiens, T-cell, 120 h) [%]	EC50 (primary human T-cells [1]; Homo sapiens, T-cell, 120 h) [nM]	Emax proliferation (% activation) (primary human T-cells [1])	EC50 (primary human T-cells [1]) [nM]
39.8	CC(C)(C)n1nnc(-c2cc3c(cc2F)S(=O)(=O)C[C@H](N)C(=O)N3Cc2ccc(OC(F)(F)F)cc2)n1 [Example 30, (3R)-3-amino-7-(2-tert-butyltetrazol-5-yl)-8-fluoro-1,1-dioxo-5-[[4-(trifluoromethoxy)phenyl]methyl]-2,3-dihydro-1λ^6,5-benzothiazepin-4-one]	117	43.5		
344	CC(C)(C)n1nnc(-c2ccc3c(c2)N(Cc2ccc(OC(F)(F)F)cc2)C(=O)[C@@H](N)CS3(=O)=O)n1 [Example 31, (3R)-3-amino-7-(2-tert-butyltetrazol-5-yl)-1,1-dioxo-5-[[4-(trifluoromethoxy)phenyl]methyl]-2,3-dihydro-1λ^6,5-benzothiazepin-4-one]	97	276		
7630	CC(C)(C)n1nnc(-c2cc3c(cc2F)S(=O)(=O)C[C@H](N)C(=O)N3Cc2ccc(F)cc2)n1 [Example 32]	101	808		
5280	CC(C)(C)n1nnc(-c2cc3c(cc2F)S(=O)(=O)C[C@H](N)C(=O)N3Cc2ccc(OCC3CCOCC3)cc2)n1 [Example 33, (3R)-3-amino-7-(2-tert-butyltetrazol-5-yl)-8-fluoro-1,1-dioxo-5-[[4-(tetrahydropyran-4-ylmethoxy)phenyl]methyl]-2,3-dihydro-1λ^6,5-benzothiazepin-4-one]	104	1900		
5870	CC(C)(C)n1nnc(-c2cc3c(cc2F)[S+]([O-])C[C@H](N)C(=O)N3Cc2ccc(Cl)cc2)n1 (stereo partly drawn) [Example 34, (3R)-3-amino-7-(2-tert-butyltetrazol-5-yl)-5-[(4-chlorophenyl)methyl]-8-fluoro-1-oxo-2,3-dihydro-1λ^4,5-benzothiazepin-4-one]			100	2800
7130	CC(C)(C)n1nnc(-c2cc3c(cc2F)[S+]([O-])C[C@H](N)C(=O)N3Cc2ccc(Cl)cc2)n1 (stereo partly drawn) [Example 35, (3R)-3-amino-7-(2-tert-butyltetrazol-5-yl)-5-[(4-chlorophenyl)methyl]-8-fluoro-1-oxo-2,3-dihydro-1λ^4,5-benzothiazepin-4-one]			125	1240
> 20000	N[C@H]1CS(=O)(=O)c2cc(F)c(-c3ccn[nH]3)cc2N(Cc2ccc(Cl)cc2)C1=O [Example 37, (3R)-3-amino-5-[(4-chlorophenyl)methyl]-8-fluoro-1,1-dioxo-7-(1H-pyrazol-5-yl)-2,3-dihydro-1λ^6,5-benzothiazepin-4-one]	57	15300		
> 20000	CCc1nc(-c2cc3c(cc2F)S(=O)(=O)C[C@H](N)C(=O)N3Cc2ccc(Cl)cc2)n[nH]1 [Example 38, (3R)-3-amino-5-[(4-chlorophenyl)methyl]-7-(5-ethyl-1H-1,2,4-triazol-3-yl)-8-fluoro-1,1-dioxo-2,3-dihydro-1λ^6,5-benzothiazepin-4-one]	50	> 20000		
842	N[C@H]1CS(=O)(=O)c2ccc(-c3nc(CC(F)(F)F)no3)nc2N(Cc2ccc(Cl)cc2)C1=O [Example 39, (3R)-3-amino-5-[(4-chlorophenyl)methyl]-1,1-dioxo-7-[3-(2,2,2-trifluoroethyl)-1,2,4-oxadiazol-5-yl]-2,3-dihydropyrido[3,2-b][1,4]thiazepin-4-one]	161	486		
2860	CC(C)(F)c1nc(-c2cc3c(cc2F)S(=O)(=O)C[C@H](N)C(=O)N3Cc2ccc(Cl)cc2)no1 [Example 47, (3R)-3-amino-5-[(4-chlorophenyl)methyl]-8-fluoro-7-[5-(1-fluoro-1-methyl-ethyl)-1,2,4-oxadiazol-3-yl]-1,1-dioxo-2,3-dihydro-1λ^6,5-benzothiazepin-4-one]	142	561		
974	CC(C)(C)c1cc(-c2cc3c(cc2F)S(=O)(=O)C[C@H](N)C(=O)N3Cc2ccc(Cl)cc2)on1 [Example 52, (3R)-3-amino-7-(3-tert-butylisoxazol-5-yl)-5-[(4-chlorophenyl)methyl]-8-fluoro-1,1-dioxo-2,3-dihydro-1λ^6,5-benzothiazepin-4-one]	133	1090		

Reference: patent US20240368150A1 (Hoffmann-La Roche Inc., priority 2021, published 2024)
